{"source": "patent US20100056563A1", "about": "“NOVEL 1.8-NAPHTHYRIDINE COMPOUNDS” (priority 2007, published 2010)", "molecular_target": "T1, FLAG-tagged full length PHD2 (Homo sapiens, UniProt Q9GZT9)", "T1 construct": "FLAG-tagged full length PHD2; FLAG; made in house; host or cells: baculovirus-infected Sf9 cells", "T1 sequence (Q9GZT9 whole entry)": "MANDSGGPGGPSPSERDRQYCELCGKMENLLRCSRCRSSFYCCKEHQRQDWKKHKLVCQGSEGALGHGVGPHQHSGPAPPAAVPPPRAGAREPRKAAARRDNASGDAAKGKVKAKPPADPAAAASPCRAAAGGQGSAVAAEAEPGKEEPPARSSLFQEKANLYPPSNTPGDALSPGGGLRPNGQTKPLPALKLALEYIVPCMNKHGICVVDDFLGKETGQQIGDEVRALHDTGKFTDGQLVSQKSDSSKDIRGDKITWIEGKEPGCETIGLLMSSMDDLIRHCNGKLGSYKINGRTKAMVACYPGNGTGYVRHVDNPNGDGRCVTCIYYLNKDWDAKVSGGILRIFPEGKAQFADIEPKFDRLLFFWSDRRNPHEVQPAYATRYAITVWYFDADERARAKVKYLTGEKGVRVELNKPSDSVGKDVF", "test": "HIF-PHD2 time resolved fluorescence inhibition assay (HIF-1α peptide hydroxylation, VHL complex detection)", "format": "biochemical", "conditions": "0.2 μM 2-oxoglutarate, 0.5 μM HIF-1α peptide, 2 hr at room temperature", "description": "To each well of a 96-well plate was added […] of test compound in DMSO and 20 μl of assay buffer (50 mM Tris pH 7.4/0.01% Tween-20/0.1 mg/ml bovine serum albumin/10 μM ferrous sulfate/1 mM sodium ascorbate/20 μg/ml catalase) containing 0.15 μg/ml FLAG-tagged full length PHD2 expressed in and purified from baculovirus-infected Sf9 cells. After a […] preincubation at room temperature, the enzymatic reactions were initiated by the addition of 4 μL of substrates (final concentrations of 0.2 μM 2-oxoglutarate and 0.5 μM HIF-1α peptide biotinyl-DLDLEMLAPYIPMDDDFQL). After 2 hr at room temperature, the reactions were terminated and signals were developed by the addition of a 25 μL quench/detection mix to a final concentration of 1 mM ortho-phenanthroline, 0.1 mM EDTA, 0.5 nM anti-(His)6 LANCE reagent (Perkin-Elmer Life Sciences), 100 nM AF647-labeled streptavidin (Invitrogen), and 2 μg/ml (His)6-VHL complex (S. Tan (2001) Protein Expr. Purif. 21, 224-234). The ratio of time resolved fluorescence signals at 665 and 620 nm was determined, and percent inhibition was calculated relative to an uninhibited control sample run in parallel.", "data": [{"smiles": "O=C(O)CNC(=O)c1c(O)c2cc(Cl)cnc2n(Cc2nc3ccccc3s2)c1=O", "note": "[Example 40, ({[1-(1,3-Benzothiazol-2-ylmethyl)-6-chloro-4-hydroxy-2-oxo-1,2-dihydro-1,8-naphthyridin-3-yl]carbonyl}amino)acetic acid]", "values": [{"measurement": "IC50", "value": 1.5, "unit": "nM"}]}]}
